From PMC6270163, “Anti-inflammatory Lignans from the Fruits of Acanthopanax sessiliflorus” (Molecules, 2012)
Like-named read-outs stand apart in the source and are kept apart here.

Key:
[1] = test system: LPS-induced NO production in RAW 264.7 macrophage cells; test: Inhibition of LPS-induced NO production (nitrite, Griess reagent); conditions: pretreated 1 h with compounds, then LPS (1 μg/mL) for 24 h, mean ± SD, three independent experiments
Description: Assays for NO production and cell viability were carried out as previously described [23]. […] The plates were pretreated with various concentrations of samples for 30 min and incubated with LPS (1 μg/mL) for 24 h. The amount of NO was determined by the nitrite concentration in cultured RAW264.7 macrophage supernatants using the Griess reagent. The cell viability was evaluated by MTT reduction.

[2] = Cell viability by MTT reduction; conditions: mouse
[3] = test system: RAW 264.7 macrophages; test: Cell viability by MTT reduction; conditions: for Cell toxicity / influence on cell viability (in words): RAW 264.7 cells treated with compounds
[4] = read-out: IC50 (concentration that caused 50% inhibition of NO production), LPS-activated RAW 264.7 macrophage cells
[5] = Mus musculus, RAW264.7, read-out: IC50 (concentration that caused 50% inhibition of NO production), LPS-activated RAW 264.7 macrophage cells

Row | Molecule | IC50 [1, 4] [µM] | viability at 24 h, 100 µM [2] [%] | IC50 [1, 5] [µM] | viability at 24 h, 100 µM ([2]; RAW 264.7 macrophages) [%] | Cell viability (%) ([3]; RAW 264.7 cells, at a concentration of 100 μM, MTT reduction, mean ± SD, three independent experiments) | Cell toxicity / influence on cell viability (in words) [3]
1 | (+)-pinoresinol [Compound 5] | 10.3 ± 2.37 |  |  |  |  | 
2 | COc1cc([C@H]2OC[C@H]3[C@@H]2CO[C@@H]3c2cc(OC)c(O[C@@H]3O[C@H](CO)[C@@H](O)[C@H](O)[C@H]3O)c(OC)c2)cc(OC)c1O [Compound 8, acanthoside B] |  | 82.4 ± 1.27 |  |  |  | 
3 | COc1cc([C@H]2OC[C@H]3[C@@H]2CO[C@@H]3c2ccc3c(c2)OCO3)ccc1O [Compound 7, (+)-xanthoxylol] | 21.6 ± 1.28 |  | 27.6 | 88.4 ± 3.71 |  | 
4 | N=C(N)NN [Aminoguanidine, reference compound] | 6.51 ± 1.15 |  |  |  | 84.61 ± 2.50 | 
5 | COc1cc([C@H]2OC[C@@H]3[C@H]2CO[C@H]3c2ccc3c(c2)OCO3)ccc1O [Compound 6, (+)-piperitol] |  |  | 22.3 ± 1.1 | 84.1 ± 2.46 |  | 
6 | c1cc2c(cc1[C@@H]1OCC3C1CO[C@H]3c1ccc3c(c1)OCO3)OCO2 (single isomer, unassigned; (-)) [Compound 2, (−)-sesamin] | 38.9 ± 2.86 | 95.5 ± 2.01 | 49.9 to 65.1 |  |  | 
7 | COc1cc(OC)cc([C@@H](O)[C@H]2COC[C@@H]2Cc2ccc(O)c(O)c2)c1 [Compound 1, 3-(3',4'-dihydroxybenzyl)-4-[(7S),7-hydroxy-3,5-dimethoxybenzyl]tetrahydrofuran] |  |  | 49.9 ± 6.56 | 84.8 ± 2.71 |  | 
8 | COc1cc([C@H]2OC[C@H]3[C@@H]2CO[C@@H]3c2ccc3c(c2)OCO3)ccc1O[C@@H]1O[C@H](CO)[C@@H](O)[C@H](O)[C@H]1O [Compound 9, simlexoside] |  |  | 53 ± 2.75 | 54.5 ± 2.21 |  | Some cell toxicity was observed
9 | O=C1OC[C@H](Cc2ccc3c(c2)OCO3)[C@H]1Cc1ccc2c(c1)OCO2 [Compound 3, (−)-hinokinin] |  |  | 21.6 ± 1.19 | 50.2 ± 1.55 |  | Some cell toxicity was observed
